Experiments:
[1] = tested on: MCP-1 production of THP-1 cells; test: MCP-1 production of THP-1 cells stimulated with LPS; type: cell-based, human; conditions: for Inhibition rate of MCP-1 production of THP-1 cells: same method as Example 1 (LPS), concentration not given; for MCP-1 production of THP-1 cells (effect in words): 10 μg/ml LPS, compound added before LPS, supernatant 24 hours after stimulation
Description: The action of beraprost (BPS) on MCP-1 production was examined by using human monocyte/macrophage system leukemic cells THP-1. Lipopolysaccharide (LPS: Difco Corp.) reactive substrains were isolated from THP-1 cells (obtained from ATCC Corp.), and cultured in a RPMI 1640 medium (Gibco Corp.) containing 10% FCS in a flask. The THP-1 cells (1×10^5 cells) were dispensed to a 12-well plate, and activated with 10 μg/ml of LPS. BPS was added 5 minutes before LPS stimulation. A cell supernatant was obtained 24 hours after stimulation, and the amount of MCP-1 production was measured by using a human MCP-1 eraser kit (R&D Corp.). The amount of production was calculated based on a calibration curve formed in the range of 31.2 to 2000 pg/ml by using MCP-1 standards contained in the kit.
The actions of prostaglandin I2 (PGI2), prostaglandin E1 (PGE1), and prostaglandin E2 (PGE2) on MCP-1 production were examined by the same method as Example 1. As a result, MCP-1 production was inhibited by PGI2, PGE1, and PGE2 (FIG. 6).
The actions of the compounds shown in the table below on MCP-1 production by the same method as Example 1. The action of each of the compounds was shown by an inhibition rate. As a result, MCP-1 production was inhibited by these compounds (Table 2).

MCP-1 amount in blood = test: MCP-1 amount in LPS-induced blood of streptozotocin diabetic rats; type: in vivo, rat
Description: SD male rats were intravenously administered with 45 mg/kg streptozotocin to induce diabetes. At the eighth week after 2 mg/kg of LPS was administered to the rats to measure the MCP-1 amount in the blood before administration and 3 and 6 hours after administration. BPS was orally administered to the rats 30 minutes before LPS administration. Rats of the same age as the diabetic rat group were used as a normal group.

[2] = tested on: glomerulonephritis rat model; test: Glomerulonephritis rat model (anti-glomerular basement membrane antibody); type: in vivo
Description: A glomerular basement membrane was administered with an antibody to form a glomerulonephritis rat model. The rats used were 9-week old male WKY rats which were purchased from Japan Charles River. The antibody was obtained by immunizing the rat glomerular basement membrane against rabbits. […] A glomerular lesion such as formation of the crescent was also confirmed by pathological findings, and an irreversible glomerulonephritis model could be formed by administering the antibody to the anti-glomerular basement membrane. MCP-1 production in the kidney was increased with the passage of days after administration of the antibody to produce infiltration of leukocytes such as macrophages and the like. 1 mg/kg of BPS was orally administered on consecutive days to study the action of BPS on MCP-1 production and infiltration of the macrophages. The MCP-1 production was studied by purifying messenger RNA (mRNA) from the rat kidneys, and determining the amount of MCP-1 mRNA expression by quantitative PCR. The macrophage infiltration was studied by immunostaining with an anti-macrophage antibody (ED-1), and then counting the macrophages infiltrated into the glomeruli under a microscope. […] Using the same glomerulonephritis model, the action of BPS on the amount of urea protein was studied 4 days and 7 days after administration of the antibody.

[3] = tested on: MCP-1 production of human peripheral blood monocytes; test: MCP-1 production of human peripheral blood-derived monocytes stimulated with LPS; type: cell-based
Description: The action of BPS on MCP-1 production was studied by using human peripheral blood-derived monocytes. The heparinized peripheral blood of a healthy person was superposed on a histo-pack (Sigma Corp.), and centrifuged to obtain a monocyte layer. The thus-obtained monocyte layer was reacted with magnetic beads (Miltenyi Biotec Corp.) of anti—CD3 and anti—CD19, and monocytes were purified by a negative selection method using a MACS column (Miltenyi Biotec Corp.). The thus-obtained monocytes were re-suspended in a RPMI 1640 medium so that 1×10^6 cells/ml of cells were obtained. The cells were dispensed to a 48-well plate, and activated with 10 ng/ml of LPS. BPS was added 5 minutes before LPS stimulation. A cell supernatant was obtained 24 hours after stimulation, and the amount of MCP-1 produced was measured by using a human MCP-1 eraser kit. The amount of production was calculated based on a calibration curve formed in the range of 31.2 to 2000 pg/ml by using MCP-1 standards contained in the kit.
(§1) The action of prostaglandin J2 (PGJ2) on MCP-1 production due to LPS or TPA simulation was studied by the same method as Examples 3 and 8 using monocytes derived from the human peripheral blood. PGJ2 was added 1 minute before stimulation. As a result, MCP-1 production due to stimulation by either LPS or TPA was inhibited by PGJ2(Table 3).

[4] = tested on: streptozotocin-induced diabetic rats; test: Neurotransmission rate of the ischiatic nerve in streptozotocin-induced diabetic rats; type: in vivo, rat
[5] = tested on: MCP-3 production of THP-1 cells; test: MCP-3 production of THP-1 cells stimulated with LPS; type: cell-based, human; conditions: 10 μg/ml LPS, supernatant 24 hours after stimulation
Description: The action of BPS on MCP-3 production was examined by using human monocyte/macrophage system leukemic cells THP-1. LPS reactive substrains were isolated from THP-1 cells, and cultured in a RPMI 1640 medium containing 10% FCS in a flask. THP-1 cells (1×10^6 cells) were dispensed to a 12-well plate, and activated with 10 μg/ml of LPS. BPS was added 5 minutes before LPS stimulation. A cell supernatant was obtained 24 hours after stimulation, and the amount of the MCP-3 produced was measured by using a MCP-3 detection method developed by the inventors. The amount of production was calculated based on a calibration curve formed in the range of 0.195 to 12.5 ng/ml by using MCP-3 standards.

[6] = tested on: MCP-1 mRNA of THP-1 cells; test: Expression of MCP-1 mRNA of THP-1 cells stimulated with LPS; type: cell-based, human; conditions: 10 μg/ml LPS, RNA 24 hours after stimulation
Description: The action of BPS on MCP-1 production was examined by using human monocyte/macrophage system leukemic cells THP-1 and the amount of mRNA expression as an index. LPS reactive substrains were isolated from THP-1 cells, and cultured in a RPMI 1640 medium containing 10% FCS in a flask. THP-1 cells (1×10^6 cells) were dispensed to a petri dish having a diameter of 10 cm, and activated with 10 μg/ml of LPS. BPS was added 5 minutes before LPS stimulation. The total of RNA was extracted with a LiCl-urea solution (6M urea/3M LiCl/5 mM EDTA) 24 hours after stimulation, and dissolved in a TE solution (10 mm Tris-HCl/lmM EDTA, pH 8.0), and then proteins were removed with phenol and chloroform, followed by RNA recovery by ethanol precipitation. RNA was developed by formaldehyde-modified 1% agarose gel, and transferred to a Hybond-N filter (Amersham Corp.), and then MCP-1 mRNA was detected by using a ^32 human MCP-1 probe. The detection was carried out by using a X-ray film or imaging film, and the amount of expression was digitized by BAS2000.

[7] = tested on: MCP-1 production of human peripheral blood monocytes; test: MCP-1 production of human peripheral blood monocytes stimulated with TPA; type: cell-based
Description: Monocytes derived from the human peripheral blood were isolated by the same method as Example 3, and stimulated with 25 nM 12-o-tetradecanoylphorbol 13-acetate (TPA) to induce MCP-1 production. The action of BPS on MCP-1 production was studied.
as §1

[8] = tested on: RANTES production of THP-1 cells; test: RANTES production of THP-1 cells stimulated with LPS; type: cell-based, human; conditions: LPS stimulation, 10 μM PGJ2 (5177 without PGJ2)
Description: THP-1 cells were prepared by the same method as Example 1, and stimulated with LPS to induce RANTES production. The amount of RANTES production was measured by RANTES eraser kit (R&D Corp.). The action of PGJ2 on RANTES production was studied.

## O=C(O)CCc1cccc2c1O[C@H]1C[C@@H](O)C(/C=C/[C@@H](O)c3ccccc3)[C@@H]21 (stereo partly drawn)
[1]
  Inhibition rate of MCP-1 production of THP-1 cells: 58%

## CC(O)CCc1cccc2c1O[C@H]1C[C@@H](O)C(/C=C/[C@@H](O)C(C)(C)Oc3ccccc3)[C@@H]21 (stereo partly drawn)
[1]
  Inhibition rate of MCP-1 production of THP-1 cells: 4%

## O=C(O)CCc1cccc2c1O[C@H]1C[C@@H](O)C(/C=C/[C@@H](O)C3CCCCC3)[C@@H]21 (stereo partly drawn)
[1]
  Inhibition rate of MCP-1 production of THP-1 cells: 85%

## CC(C)(CO)Cc1cccc2c1O[C@H]1C[C@@H](O)C(/C=C/[C@@H](O)C(C)(C)Oc3ccccc3)[C@@H]21 (stereo partly drawn)
[1]
  Inhibition rate of MCP-1 production of THP-1 cells: 28%

## O=C(O)COc1cccc2c1O[C@H]1C[C@@H](O)C(/C=C/[C@@H](O)c3ccccc3)[C@@H]21 (stereo partly drawn)
[1]
  Inhibition rate of MCP-1 production of THP-1 cells: 61%

## O=C(O)CCc1cccc2c1O[C@H]1C[C@@H](O)C(/C=C/[C@@H](O)CC3CCCCC3)[C@@H]21 (stereo partly drawn)
[1]
  Inhibition rate of MCP-1 production of THP-1 cells: 87%

## CC#CCC(C)[C@H](O)/C=C/[C@@H]1[C@H]2c3cccc(CCCC(=O)O)c3O[C@H]2C[C@H]1O (mixture of isomers) [BPS, beraprost]
MCP-1 amount in blood; BPS oral 30 minutes before 2 mg/kg LPS, 3 hours after
  MCP-1 amount in blood: 7.27 ± 2.55 ng/mL
MCP-1 amount in blood; BPS oral 30 minutes before 2 mg/kg LPS, 6 hours after
  MCP-1 amount in blood: 4.82 ± 4.40 ng/mL
MCP-1 amount in blood; BPS oral 30 minutes before LPS, before LPS administration
  MCP-1 amount in blood: 0.39 ± 0.13 ng/mL
[1]
  MCP-1 production of THP-1 cells (effect in words): inhibits dose-dependently
[2]; 1 mg/kg BPS oral on consecutive days, 4 days and 7 days after antibody, quantitative PCR
  MCP-1 mRNA expression in kidney (effect in words): inhibition
[2]; 1 mg/kg BPS oral on consecutive days, 4 days and 7 days after antibody, vs distilled water group
  infiltration of macrophage per glomerulus (effect in words): significantly inhibited
[2]; 1 mg/kg BPS oral, 4 days and 7 days after administration of the antibody
  amount of urea protein (effect in words): significantly decreased
[3]; 10 ng/ml LPS, supernatant 24 hours after stimulation
  MCP-1 production of human peripheral blood monocytes (effect in words): inhibits dose-dependently
[4]
  decrease in the neurotransmission rate due to diabetes (effect in words): significantly improved
[5]
  MCP-3 production of THP-1 cells (effect in words): inhibits dose-dependently
[6]
  expression of MCP-1 mRNA of THP-1 cells (effect in words): inhibits dose-dependently
[7]; 25 nM TPA stimulation, 100 nM BPS (224.7 without BPS)
  MCP-1 produced: 184 pg/1×10^6 cells

## CCCCC[C@H](O)/C=C/[C@H]1[C@H](O)CC(=O)[C@@H]1CCCCCCC(=O)O [PGE1, prostaglandin E1]
[1]
  MCP-1 production of THP-1 cells (effect in words): inhibited

## CCCCC[C@H](O)/C=C/[C@H]1[C@H](O)CC(=O)[C@@H]1C/C=C\CCCC(=O)O [PGE2, prostaglandin E2]
[1]
  MCP-1 production of THP-1 cells (effect in words): inhibited

## CCCCC[C@H](O)/C=C/[C@@H]1[C@H]2C/C(=C/CCCC(=O)O)O[C@H]2C[C@H]1O [PGI2, prostaglandin I2]
[1]
  MCP-1 production of THP-1 cells (effect in words): inhibited

## CCCCC[C@H](O)/C=C/[C@H]1C(=O)C=C[C@@H]1C/C=C\CCCC(=O)O [PGJ2, prostaglandin J2]
[8]
  RANTES produced: 2403 pg/5×10^5 cells
[3]; LPS 10 ng/ml + PGJ2 10 μM (21872 with LPS alone)
  MCP-1: 6 pg/10^6 cells
[7]; TPA 25 nM + PGJ2 10 μM (225 with TPA alone)
  MCP-1: 2 pg/10^6 cells

Source: patent US6653345B2, “C-C chemokine synthesis inhibitor” (Toray Industries, Inc., priority 1997, dated 2003)
